Experimental data from patent US10092620B2, “Uses of cyclic peptides for treating and preventing atherosclerosis” (THE SCRIPPS RESEARCH INSTITUTE, priority 2013, dated 2018).
Entries after “also recorded” stand apart in the source; their conditions may differ. Non-standard residues stand in square brackets, D forms with d. Residues, ends and D or L forms follow the SMILES beside them.

Legend:
[1] = system: mouse macrophage J774 cells; assay: cholesterol efflux from mouse macrophage cells incubated with peptide-treated human plasma; assay type: cell-based
Description: Selected cyclic D,L-α-peptides were further evaluated for their ability to promote cellular cholesterol efflux from mouse macrophage J774 cells. A main factor for HDL anti-atherogenicity is its role in reverse cholesterol transport, of which cellular cholesterol efflux is a critical component. To measure efflux mediated by the cyclic D,L-α-peptides, cholesterol-laden cells were incubated with peptide-treated plasma for 4 h, after which the level of cholesterol effluxed to the media was measured as described in Sankaranarayanan et al., J. Lipid Res. 52, 2332-2340, 2011.
Preparation of labeling medium: These procedures were modified from that reported in Sankaranarayanan et al., J. Lipid Res. 52, 2332-2340, 2011. The labeling medium was prepared by complexing the unlabeled cholesterol and BODIPY-cholesterol (20% of the total cholesterol) with methyl-β-cyclodextrin (CD) at a molar ratio of 1:40 (total cholesterol/CD). Unlabeled cholesterol and BODIPY-cholesterol were dissolved in chloroform and dried in a round bottom flask by rotor-evaporation in the dark to form a thin film. The cholesterol mixture was solubilized by adding 20 mM CD in MEM-HEPES buffer. The suspension was sonicated in a water bath (37° C.) for at 1 h, stirred at 37° C. for 3 h, filtered using a 0.45-μm syringe filter, and diluted with an equal volume of MEM-HEPES buffer containing 4 μg/mL Sandoz ACAT (acyl-CoA:cholesterol acyltransferase) inhibitor (Sigma). The final concentrations of BODIPY-cholesterol, unlabeled cholesterol, CD, and ACAT inhibitor in the labeling medium were 0.025 mM, 0.1 mM, 10 mM, and […], respectively.
Preparation of efflux medium: Just before the initiation of the efflux assays, the human plasma frozen at −80° C. was thawed, and 80 μL of plasma was incubated with 20 μL of cyclic peptide stocks (peptide stocks were 1-3 mg/mL in 10% sucrose) or the vehicle (10% sucrose) at 37° C. for 30 min. The treated plasma samples (100 μL) were then incubated with 25% PEG 8000 solution in 200 mM glycine buffer, pH 8.5 (40 μL) to precipitate apoB-containing lipoproteins (Asztalos et al., J. Lipid Res. 46, 2246-2253, 2005). After a 15-min incubation, the precipitate was removed by high-speed centrifugation (13,000 rpm, 10 min, 4° C.), and the supernatant (60 μL) was immediately diluted with MEM-HEPES buffer (1.5 mL) to give ˜2% whole plasma. This solution, containing the peptide remodeled-HDL lipoprotein fraction as cholesterol acceptors, was used as the efflux medium.
Cholesterol efflux from mouse macrophage cells: Mouse macrophage J774A.1 cells (TIB-67; American Type Culture Collection, Manassas, Va.) were seeded in 12-well culture plate at 3×10^5 cells/mL and cultured to 80-90% confluency in DMEM with 10% FBS at 5% CO2. Cells were rinsed twice with MEM-HEPES, incubated for 1 h with 0.25 ml of labeling medium containing CD/BODIPY-cholesterol/unlabeled cholesterol and 2 μg/mL Sandoz ACAT inhibitor, followed by washing twice with MEM-HEPES. The cholesterol-laden cells were equilibrated for 18 h in DMEM containing 5% LPDS, […] Sandoz ACAT inhibitor, and 0.3 mM Cpt-cAMP. After equilibration, the cells were washed twice with MEM-HEPES and incubated with 0.25 mL of efflux media for 4 h. At the end of the incubation time, the efflux media was removed and centrifuged (1200 rpm, 10 min) to remove floating cells, and the fluorescence intensity of 100 μL cell-free media was recorded using a Tecan GENios plate reader (excitation 485 nm, emission 535 nm). The obtained signals were background subtracted using the signal from unlabeled cells. The cell monolayers were rinsed twice with ice-cold MEM-HEPES and solubilized with 0.25 mL 1% cholic acid by shaking on a plate shaker for at least 4 h at room temperature; then the fluorescence intensity of 100 μL cell lysate was recorded and background subtracted using the signal from unlabeled cell lysate. […]

[2] = system: LDLr-null mice; assay: plasma lipoprotein and lipoprotein cholesterol profiles (FPLC of pooled plasma); assay type: in vivo, mouse; conditions: 2 weeks oral ~25 mg/kg/day
Description: Effect of cyclic peptides on plasma lipoprotein and lipoprotein cholesterol profiles: Pooled plasma (240 μL total, 30 μL from each, n=8 mice per group) from the two-week blood draw was used for fast protein liquid chromatography (FPLC) analysis. Lipoproteins were separated by using 3 Superdex 200 10/30 columns connected in series (GE Healthcare). The plasma was centrifuged at 11,000 rpm for 10 min at room temperature to remove particulates (floating material was gently mixed into liquid before removing the supernatant for FPLC injection). 200 μL of the pooled plasma was injected on the system eluted with 10 mM tris-HCl buffer, pH 7.4, containing 1 mM EDTA and 150 mM NaCl; a flow rate of 0.5 ml/min and fraction size of 0.5 mL were used. Total cholesterol in the FPLC fractions was measured using the Amplex® red cholesterol assay kit (No. A12216, Life Technologies) according to the manufacturer's instructions. 20 μL of selected HDL fractions (as indicated in FIG. 6) were mixed with 4 μL of 6× native loading buffer (375 mM tris, pH 6.8, 0.06% bromophenol, 60% glycerol), out of which 20 μL was applied to non-denaturing gel electrophoresis and then immunoblotted for mouse apoA-I as described above.

[3] = listed as c[wLwReQeR], 25 mg/kg/day

## CC(C)C[C@@H]1NC(=O)[C@@H](Cc2c[nH]c3ccccc23)NC(=O)[C@H](CCCNC(=N)N)NC(=O)[C@@H](CCC(=O)O)NC(=O)[C@H](CCC(N)=O)NC(=O)[C@@H](CCC(=O)O)NC(=O)[C@H](CCCNC(=N)N)NC(=O)[C@@H](Cc2c[nH]c3ccccc23)NC1=O [SEQ ID NO:1, c[wLwReQeR]] (cyclo([dW]L[dW]R[dE]Q[dE]R))
[1]; J774 cells in the efflux assay
  toxicity based on the cellular morphology and density: did not appear to be toxic
[1]; J774 cells, 2% apoB-depleted peptide-treated human plasma, 4 h, FIG. 2b
  promotion of cellular cholesterol efflux (in words): clear concentration dependency; also recorded: only marginally less effective than the α-helical apoA-I mimetic 4F
[2]; listed as 1, 25 mg/kg/day
  HDL particle size (FPLC lipoprotein profile): remodeled in favor of the smaller HDL particle sizes
  VLDL and LDL levels (FPLC lipoprotein profile): reduced levels of VLDL and LDL
[2]; [3]
  HDL particle size (FPLC lipoprotein profile): modest shift to smaller (later eluting) particles
  VLDL and LDL levels (FPLC lipoprotein profile): decreases in the VLDL and LDL levels
[2]; vs vehicle
  HDL levels (FPLC lipoprotein profile): comparable for both groups
